# Biological target: T1, Solute carrier family 15 member 2 (Rattus norvegicus) (UniProt Q63424)
# T1 sequence (whole entry): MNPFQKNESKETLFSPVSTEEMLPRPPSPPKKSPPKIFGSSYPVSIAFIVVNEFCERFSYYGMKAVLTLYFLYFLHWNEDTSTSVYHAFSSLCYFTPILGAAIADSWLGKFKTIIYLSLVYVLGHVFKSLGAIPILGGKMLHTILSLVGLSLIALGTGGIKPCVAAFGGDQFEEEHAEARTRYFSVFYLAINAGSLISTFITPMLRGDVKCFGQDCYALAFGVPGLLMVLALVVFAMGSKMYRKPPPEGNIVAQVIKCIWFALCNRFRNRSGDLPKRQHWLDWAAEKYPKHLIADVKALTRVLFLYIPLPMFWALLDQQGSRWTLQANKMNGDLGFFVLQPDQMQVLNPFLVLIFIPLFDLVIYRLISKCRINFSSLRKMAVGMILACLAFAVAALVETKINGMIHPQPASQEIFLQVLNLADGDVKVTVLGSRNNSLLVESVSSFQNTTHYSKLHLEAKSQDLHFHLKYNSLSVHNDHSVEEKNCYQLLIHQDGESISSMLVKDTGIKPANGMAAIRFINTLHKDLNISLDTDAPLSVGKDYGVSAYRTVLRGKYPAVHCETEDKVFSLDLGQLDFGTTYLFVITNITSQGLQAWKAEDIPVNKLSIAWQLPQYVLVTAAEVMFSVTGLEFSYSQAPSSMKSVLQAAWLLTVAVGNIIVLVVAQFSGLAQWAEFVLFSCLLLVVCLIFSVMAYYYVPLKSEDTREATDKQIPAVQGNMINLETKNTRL
# Assay: TP_TRANSPORTER: uptake in Xenopus laevis oocytes
# Format: functional, cell-based
# Settings: Oocyte
structure (smiles),measurement,value
CC(C)C[C@H](NC(=O)[C@@H](O)[C@H](N)Cc1ccccc1)C(=O)O,Activity,substrate [+]
